Reference: US20260151391A1, “TREATMENT OF MITOCHONDRIAL DISEASES WITH sGC STIMULATORS” (Tisento Therapeutics Inc., priority 2022, published 2026)

What was measured:
sGC = experiment: cGMP neuronal cell-based assay (rat primary neurons); conditions: rat primary hippocampal neurons, DETA-NO 10 μM or 30 μM, cGMP by LC-MS/MS; I-20 and I-14: average of free acid and sodium salt; read-out: sGC Neuron EC50
Description: Rat primary neurons were isolated from fetuses of 18-day pregnant Sprague-Dawley females. The fetuses were collected in Hanks' balanced salt solution (HBSS) and brains were rapidly removed. The cerebral hippocampi were isolated and mechanically fragmented. Further tissue digestion was performed with 0.25% (wt/vol) trypsin solution in HBSS without Ca2+ and Mg2+ for 15 min at 37° C. After trypsination, cells were washed and resuspended in neurobasal medium supplemented with 0.5 mM L-glutamine, 12.5 uM glutamic acid, 2% B-27 and 100 U/mL penicillin, and 100 μg/mL streptomycin. Cells were plated at a density of 26×10^3 or 3×10^4 or 4×10^4 cells/well in a poly-D-lysine coated 384-well flat clear-bottom plate (Corning Cat No 354662). Cells were incubated 6-7 days at 37° C. in a humidified chamber with 5% CO2. Media was removed and cells were washed 1× with HBSS containing Ca2+ and Mg2+, and replaced with 40 uL HBSS containing 0.5 mM IBMX, and incubated for 15 minutes at 37° C. […] Following centrifugation at 4° C. for 5 minutes at 1000×g to pellet cell debris, the supernatant was aspirated to a clean plate and the samples were analyzed for cGMP content. cGMP concentrations were determined from each sample using LC-MS/MS.
Concentration response data were analyzed using a 4-parameter fit (log (agonist) vs. response-variable slope). […]

[1] = tested on: memory disruption induced by MK-801 in male Long Evans rats; experiment: Novel Object Recognition (NOR) test, memory disruption induced by MK-801; type: in vivo, rat; conditions: any dose tested, oral
Description: In the present study, a memory saving model was used. MK-801 (Dizocilpine), an uncompetitive antagonist of the NMDA receptor was used to cause deficit of recognition memory. sGC stimulators were evaluated for their efficacy to prevent memory impairment induced by MK-801.
Adult male Long-Evans rats (275-299 gram at arrival from Envigo, Indianapolis, IN) were used in this study. Rats were placed in the experimental rooms and assigned unique identification numbers (tail marks). Rats were housed 2 per cage in polycarbonate cages with filter tops and acclimated for at least 7 days prior to testing. […]
NOR test was conducted in an open-field arena (40×40 cm) placed in a sound-attenuated room under dimmed lighting. […] All training and testing trials were video-taped and scored by an observer blind to treatments.
On Days 1 and 2, rats were allowed to freely explore the arena (no objects inside) for a 5-minute habituation period. […] Each rat was placed in the arena facing the same direction at the same position, and the time spent actively exploring the objects during a 3-minute training period (T1) was recorded. […] Each rat was placed back into the test arena in the presence of one familiar object and one novel object for 5 minutes, and the time spent exploring both objects was recorded. […]

## Cc1cc(F)c(Cc2nc(-c3ncc(F)c(O)n3)cn3ccnc23)cc1F [Compound I-14, 5-fluoro-2-(8-(2,5-difluoro-4-methylbenzyl)imidazo[1,2-a]pyrazin-6-yl)pyrimidin-4-ol]
sGC
  EC50: ≤ 100 nM
[1]
  obvious side effects in NOR study: None of the rats in this study showed obvious side effects
